What all share (type): in vivo
In experiment [1] the test system is Ipomea hederaceae (IPOHE). Briefly: Pre-emergence biological efficacy, glasshouse pot test. The settings on record: Ipomoea hederacea, 312 h; pre-emergence, 1,000 g/ha, evaluated after 13 days (100=total damage; 0=no damage); read-out: Percentage damage IPOHE. In outline: (§1)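 Test compound, formulated in acetone/water (50:50) containing 0.5% Tween 20 and diluted into an aqueous spray, was applied at 1000 or 250 g/ha to pots sown one day earlier. Injury was rated after 13 days, 100 meaning total damage.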

Experiment [2] deals with Alopecurus myosuroides (ALOMY). The experiment is described as above. The settings on record: 312 h, pre-emergence, 1,000 g/ha, evaluated after 13 days (100=total damage; 0=no damage), read-out: Percentage damage ALOMY. The procedure, abridged: as §1
Experiment [3] concerns Amaranthus retoflexus (AMARE). The description is as above. The settings on record: Amaranthus retroflexus, 312 h; pre-emergence, 1,000 g/ha, evaluated after 13 days (100=total damage; 0=no damage); read-out: Percentage damage AMARE. The procedure, abridged:
as §1

Experiment [4] has as its system Solanum nigrum (SOLNI). The experiment is described as above. The settings on record: 312 h, pre-emergence, 1,000 g/ha, evaluated after 13 days (100=total damage; 0=no damage), read-out: Percentage damage SOLNI. In outline:
as §1

Experiment [5] concerns Echinochloa crus-galli (ECHCG). The description is as above. The settings on record: 312 h, pre-emergence, 1,000 g/ha, evaluated after 13 days (100=total damage; 0=no damage), read-out: Percentage damage ECHCG. The procedure, abridged:
as §1

The test system of experiment [6] is Setaria faberi (SETFA). The description is as above. The settings on record: 312 h, pre-emergence, 1,000 g/ha, evaluated after 13 days (100=total damage; 0=no damage), read-out: Percentage damage SETFA. In outline:
as §1

Experiment [7] deals with Ipomea hederaceae (IPOHE). Briefly: Post-emergence biological efficacy, glasshouse pot test. To be noted: Ipomoea hederacea, 312 h; post-emergence, 1,000 g/ha, evaluated after 13 days (100=total damage; 0=no damage); read-out: Percentage damage caused to weed species, IPOHE. The procedure, abridged: (§2)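 Plants were sown in standard soil and grown 8 days in a glasshouse (24/16° C. day/night, 14 hours light, 65% humidity), then sprayed post-emergence at 1000 or 250 g/ha from acetone/water (50:50) with 0.5% Tween 20. Damage was scored visually after 13 days (0 = none, 100 = total).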

The test system of experiment [8] is Alopecurus myosuroides (ALOMY). The experiment is described as above. To be noted: 312 h, post-emergence, 1,000 g/ha, evaluated after 13 days (100=total damage; 0=no damage), read-out: Percentage damage caused to weed species, ALOMY. In outline:
as §2

For experiment [9], the system named is Amaranthus retoflexus (AMARE). The description is as above. To be noted: Amaranthus retroflexus, 312 h; post-emergence, 1,000 g/ha, evaluated after 13 days (100=total damage; 0=no damage); read-out: Percentage damage caused to weed species, AMARE. In outline: as §2
Experiment [10] concerns Solanum nigrum (SOLNI). The description is as above. To be noted: 312 h, post-emergence, 1,000 g/ha, evaluated after 13 days (100=total damage; 0=no damage), read-out: Percentage damage caused to weed species, SOLNI. In outline: as §2
Experiment [11] concerns Echinochloa crus-galli (ECHCG). The experiment is described as above. The settings on record: 312 h, post-emergence, 1,000 g/ha, evaluated after 13 days (100=total damage; 0=no damage), read-out: Percentage damage caused to weed species, ECHCG. The procedure, abridged:
as §2

The test system of experiment [12] is Setaria faberi (SETFA). Described as above. The settings on record: 312 h, post-emergence, 1,000 g/ha, evaluated after 13 days (100=total damage; 0=no damage), read-out: Percentage damage caused to weed species, SETFA. In outline:
as §2

In the case of `COC(=O)c1nc(C2CC2)nc(NCc2ccccc2OC)c1Cl` [Compound 4-78, 5-Chloro-2-cyclopropyl-6-methoxycarbonyl-4-(2-methoxyphenyl-methylamino)-pyrimidine], the pest or weed control at 1000 g/ha in experiment [1] worked out at 100%; in experiment [2], 20%; in experiment [3] it was 90%; in the experiment with Solanum nigrum (SOLNI) [4], 90%; in experiment [5], 60%; in the experiment with Setaria faberi (SETFA) [6], 40%. Also, the pest or weed control at 1000 g/ha stood at 100% in experiment [7]; 30% in experiment [8]; 100% in experiment [9]; 90% in the experiment on Solanum nigrum (SOLNI) [10]; 70% in [11]; 80% in the experiment with Setaria faberi (SETFA) [12].

With `COC(=O)c1nc(C2CC2)nc(NCc2ccc(OC)cc2)c1Cl` [Compound 4-80, 5-Chloro-2-cyclopropyl-6-methoxycarbonyl-4-(4-methoxyphenyl-methylamino)-pyrimidine], the pest or weed control at 1000 g/ha stood at 90% in experiment [1]; 40% in experiment [2]; 90% in [3]; 90% in the experiment on Solanum nigrum (SOLNI) [4]; 50% in experiment [5]; 60% with Setaria faberi (SETFA) [6]. In addition, the pest or weed control at 1000 g/ha turned out to be 100% in [7]; 30% in experiment [8]; 100% in [9]; 100% in the experiment with Solanum nigrum (SOLNI) [10]; 60% in experiment [11]; 90% in the experiment with Setaria faberi (SETFA) [12].

On to `CCCCOc1ccc(CNc2nc(C3CC3)nc(C(=O)OC)c2Cl)cc1` [Compound 4-82, 4-(4-^nButoxyphenyl-methylamino)-5-chloro-2-cyclo-propyl-6-methoxy-carbonylpyrimidine], for which the pest or weed control at 1000 g/ha in experiment [1] stood at 100%; in [2] it was 40%; in [3], 90%; in the experiment on Solanum nigrum (SOLNI) [4], 90%; in experiment [5], 60%; in the experiment on Setaria faberi (SETFA) [6] it was 80%. The pest or weed control at 1000 g/ha came out at 100% in [7]; 30% in experiment [8]; 100% in experiment [9]; 100% in the experiment with Solanum nigrum (SOLNI) [10]; 60% in [11]; 80% with Setaria faberi (SETFA) [12].

Consider `COC(=O)c1nc(C2CC2)nc(NCc2ccc(OC(F)(F)F)cc2)c1Cl` [Compound 4-83, 5-Chloro-2-cyclopropyl-6-methoxycarbonyl-4-(4-trifluoromethoxy-phenylmethyl-amino)pyrimidine], for which the pest or weed control at 1000 g/ha in experiment [1] turned out to be 50%; in experiment [2], 0%; in [3], 60%; with Solanum nigrum (SOLNI) [4] it was 40%; in experiment [5], 0%; in the experiment on Setaria faberi (SETFA) [6] it was 10%. For the same molecule, the pest or weed control at 1000 g/ha in experiment [7] is 100%; in experiment [8], 20%; in experiment [9], 100%; in the experiment with Solanum nigrum (SOLNI) [10], 100%; in experiment [11], 60%; with Setaria faberi (SETFA) [12], 90%.

In the case of `COC(=O)c1nc(C2CC2)nc(NCc2ccc(N)cc2)c1Cl` [Compound 4-86, 4-(4-Aminophenyl-methylamino)-5-chloro-2-cyclopropyl-6-methoxycarbonyl-pyrimidine], the pest or weed control at 1000 g/ha in experiment [1] is 100%; in [2], 60%; in experiment [3], 100%; in the experiment on Solanum nigrum (SOLNI) [4] it was 100%; in experiment [5], 70%; in the experiment on Setaria faberi (SETFA) [6] it was 80%. Moreover, the pest or weed control at 1000 g/ha is 100% in experiment [7]; 50% in experiment [8]; 100% in experiment [9]; 100% in the experiment with Solanum nigrum (SOLNI) [10]; 70% in experiment [11]; 90% with Setaria faberi (SETFA) [12].

`COC(=O)c1nc(C2CC2)nc(NCc2ccc(N(C)C)cc2)c1Cl` [Compound 4-87, 5-Chloro-2-cyclopropyl-4-(4-dimethylamino-phenylmethyl-amino)-6-methoxycarbonyl-pyrimidine]: the pest or weed control at 1000 g/ha turned out to be 100% in experiment [1]; 90% in [2]; 100% in experiment [3]; 100% with Solanum nigrum (SOLNI) [4]; 90% in experiment [5]; 90% in the experiment with Setaria faberi (SETFA) [6]. Moreover, the pest or weed control at 1000 g/ha amounted to 100% in [7]; 60% in experiment [8]; 100% in experiment [9]; 100% with Solanum nigrum (SOLNI) [10]; 60% in [11]; 100% in the experiment on Setaria faberi (SETFA) [12].

For the molecule `COC(=O)c1nc(C2CC2)nc(NCc2ccccc2N2CCOCC2)c1Cl` [Compound 4-88, 5-Chloro-2-cyclopropyl-6-methoxycarbonyl-4-(2-morpholin-4-yl-phenylmethyl-amino)-pyrimidine], the pest or weed control at 1000 g/ha in [1] stood at 100%; in experiment [2], 40%; in [3], 70%; in the experiment with Solanum nigrum (SOLNI) [4], 70%; in experiment [5], 50%; with Setaria faberi (SETFA) [6], 20%. Besides, the pest or weed control at 1000 g/ha in experiment [7] was determined as 80%; in experiment [8] it was 50%; in [9], 100%; in the experiment with Solanum nigrum (SOLNI) [10], 80%; in [11] it was 60%; in the experiment with Setaria faberi (SETFA) [12], 60%.

As to `COC(=O)c1nc(C2CC2)nc(NCc2ccccc2[N+](=O)[O-])c1Cl` [Compound 4-90, 5-Chloro-2-cyclopropyl-6-methoxycarbonyl-4-(2-nitrophenyl-methylamino)-pyrimidine], the pest or weed control at 1000 g/ha in experiment [1] is 100%; in experiment [2], 50%; in experiment [3] it was 100%; in the experiment with Solanum nigrum (SOLNI) [4], 100%; in [5], 60%; with Setaria faberi (SETFA) [6], 80%. Also, the pest or weed control at 1000 g/ha in [7] was 100%; in experiment [8], 50%; in experiment [9], 100%; with Solanum nigrum (SOLNI) [10], 100%; in experiment [11] it was 80%; in the experiment with Setaria faberi (SETFA) [12], 100%.

Consider `COC(=O)c1nc(C2CC2)nc(NCc2cccc([N+](=O)[O-])c2)c1Cl` [Compound 4-91, 5-Chloro-2-cyclopropyl-6-methoxycarbonyl-4-(3-nitrophenyl-methylamino)-pyrimidine], for which the pest or weed control at 1000 g/ha in [1] came out at 60%; in experiment [2] it was 10%; in experiment [3] it was 50%; in the experiment with Solanum nigrum (SOLNI) [4], 50%; in experiment [5], 20%; in the experiment on Setaria faberi (SETFA) [6] it was 20%. The pest or weed control at 1000 g/ha in experiment [7] stood at 100%; in experiment [8] it was 50%; in experiment [9], 100%; in the experiment with Solanum nigrum (SOLNI) [10] it was 100%; in experiment [11], 80%; in the experiment on Setaria faberi (SETFA) [12], 90%.

Source of the values: US20110086759A1, “CHEMICAL COMPOUNDS” (SYNGENTA CROP PROTECTION, INC., priority 2007, published 2011).
